The values that follow come from patent US20250152570A1 (AIR FORCE MEDICAL UNIVERSITY, priority 2022, published 2025).

Assay [1] relates to TE10 cells. Put plainly: CCK8 cell proliferation, TE10. Type of assay: cell-based. To be noted: compared with the blank control. The source says:
(§1) At the same time, BI-D1870 was used as a positive control, and no drug was used as a blank control (Black).
(§2) The growth curve was drawn based on time and absorbance value.

Assay [2] relates to ECA109 cells. The assay is described as follows: CCK8 cell proliferation, ECA109. Type of assay: cell-based. The note with it: compared with the blank control.
Description: as §1, §2

Assay [3] has as its system TE10 cells. The assay is described as follows: Transwell migration assay, TE10. Type of assay: cell-based. The note with it: compared with the blank control. How it is done: as §1
(§3) • (1) Digest cells. Wash once with PBS, resuspend in serum-free medium, and adjust the cell density to 5×10^5/ml. • (2) Add 500 μl of culture medium containing 10% fetal bovine serum to the lower chamber of the 24-well plate. Take 200 μl of cell suspension and add it to the chamber. Note that there are no bubbles between the chamber and the lower culture medium. • (3) Culture routinely for 16-24 h. • (4) Aspirate the culture medium in the chamber, fix the cells in the chamber with anhydrous methanol for 15 min, and rinse with PBS. • (5) Color: Add Gumsa staining solution to the 24-well plate, immerse the membrane in the staining solution for 20 min, and wash with PBS. • (6) Carefully wipe off the cells on the inner layer of the membrane with a cotton swab and air-dry the membrane. • (7) Take pictures under a microscope, count 5 high-power fields, and take the average value.

The subject of assay [4] is ECA109 cells. Put plainly: Transwell migration assay, ECA109. The note with it: compared with the blank control. Format: cell-based. Here is the method: as §1, §3
Assay [5] has as its system RSK4 downstream substrates (P-RPS6, P-GSK3β). The assay is described as follows: Western blot of phosphorylation level of RSK4 downstream substrates. Type of assay: cell-based. To be noted: TE10, ECA109 cells. Here is the method: Western blot was used to detect the effect of phosphorylation level of RSK4 downstream substrates.
(1) Protein extraction, using Kangwei Century RIPA lysis buffer. Place the cell culture flask on ice for 20 minutes, shake it back and forth, and blow it with a pipette. Scrape the cells with a cell scraper, transfer them to an EP tube, and centrifuge them at 4° C. 10-20 μl can be aspirated for protein quantification. Add loading buffer, boil for 5 min, centrifuge at 12000 rpm for 5 min, and store in an ultra-low temperature refrigerator. Tissue protein extraction: Grind in liquid nitrogen, transfer to EP tube after melting, lyse on ice for 20 min, and centrifuge at 4° C.
(2) Protein quantification, use the Kangwei Century BCA quantification kit. Make two replicate wells for each sample, take the average value to make a standard curve and calculate the sample concentration.
(3) Protein electrophoresis, use the Kangwei Century SDS-PAGE gel preparation kit. The separation gel concentration is 8%, and the concentration gel concentration is 5%. The separation gel is 1.5 cm away from the upper edge of the front glass plate and filled with water to seal the gel. Use filter paper to absorb the water sealing liquid, fill the concentrated gel, and insert the comb. The voltage is 100V constant for 1 h30 min until the bromophenol blue runs out and stops electrophoresis.
(4) Transfer to membrane, soak the gel, filter paper, and sponge pad in 4° C. pre-cooled transfer buffer for 10 min, soak the PVDF membrane with methanol for 5 min, and transfer it to the transfer buffer for 10 min after it is fully wetted. Installation The order of transfer clips: black plate, sponge, 3 layers of filter paper, gel, membrane, 3 layers of filter paper, sponge, white plate. Expel bubbles at each step and place the membrane in one go. […]
(8) Luminescence: Use the Kangwei Century Chemiluminescence Detection Kit and scan the detection results with a chemiluminescence imager.
(9) Use Photoshop software to perform semi-quantitative grayscale analysis of the image and calculate the relative expression of the protein.

Another assay relates to ESCC cells. Put plainly: Nude mouse tumor formation experiment, esophageal squamous cell carcinoma. Format: in vivo, BALB/c nude mice. To be noted: intraperitoneally 15 mg/kg or 30 mg/kg per day; 20 days. How it is done:
• (1) Nude mouse tumor formation experiment was performed on 4-6 week old female BALB/c nude mice, with 5 nude mice in each group. Each mouse was subcutaneously injected with about 1×10^6 ESCC cells dissolved in 200 μl sterile PBS. • (2) When the tumor volume reached 150 mm^3, the mice were divided into groups and treated differently. […] If the mice were infected or in poor condition, they were treated in time. During this period, the tumor volume was measured every 3-5 days, and the volume calculation formula was length×width 2×0.5. • (4) At the end of the experiment, the mice were killed, the subcutaneous tumors were removed, photographed, weighed, and counted.

The next assay relates to KYSE450-IR. The assay is described as follows: CCK8 proliferation of icotinib-resistant strain KYSE450-IR. Type of assay: cell-based. To be noted: for proliferation of KYSE450-IR: 2 μm, CCK8, DMSO blank control. How it is done:
(§4) The CCK-8 cell proliferation kit of Shanghai Taoshu Biotechnology Co., Ltd. was used. • (1) Cell suspension was inoculated in a 96-well plate, 100 μL per well, 2,000 cells per well. • (2) Culture or give drugs according to experimental needs, and treat for an appropriate time. • (3) Add 10 μL of CCK-8 solution to each well and incubate at 37° C. • (4) The absorbance value was determined by selecting a wavelength of 450 nm on the microplate reader. The growth curve was drawn based on time and absorbance value.
(§5) The expression level of EGFR and the sensitivity to icotinib and afatinib in various ESCC cell lines (T1, T10, T11, KYSE150, KYSE450, ECA109, EC9706) were detected. The cell line KYSE450 with high EGFR expression and sensitivity to afatinib (low IC50) was selected. The icotinib and afatinib drug concentration increasing mode of action was used to induce KYSE450 cells to produce drug resistance, and a stable cell line resistant to icotinib and afatinib was obtained. The optimal drug concentration gradient for inducing afatinib obtained from the literature reports and the preliminary experiments before formal induction culture was: 100 nM, 300 nM, 500 nM, 800 nM, 1 μM and 5 μM. The initial induction dose of this experiment was 100 nM, and the highest induction dose was 5 μM. During the induction period, the culture medium containing icotinib and afatinib was replaced every 2 days. When the initial induction dose was induced for two weeks and the cell growth was stable, the drug induction dose began to be doubled, and each dose was maintained for 14 days before reaching the highest induction dose. The drug-resistant cells obtained after 10 months of induction culture were named KYSE450/IR KYSE450/AR cell lines.

The test system of the next assay is KYSE450/AR. Put plainly: CCK8 proliferation of afatinib-resistant strain KYSE450/AR. The note with it: FIG. 10. Type of assay: cell-based. How it is done:
as §4
as §5, with “When the initial induction dose was induced for two weeks and the cell growth was stable, the drug induction dose began to be doubled, and each dose was maintained for 14 days before reaching the highest induction dose. The drug-resistant cells obtained after 10 months of induction culture were named KYSE450/IR KYSE450/AR cell lines.” left out

For the next assay, the system named is B16F10 (melanoma). The assay is described as follows: B16F10 (melanoma) transplant tumor model. Format: in vivo, C57BL/6 mice. To be noted: Selonsertib 15 mg/kg per day i.p.; Anti-PD1 50 μg/kg once every two days; 10 days. How it is done: (§6) • (1) B16F10 (melanoma) and LLC (Lewis lung cancer) transplant tumor models were constructed in 6-8 week old C57BL/6 mice, with 6 mice in each group. Each mouse was subcutaneously injected with about 1×10^6 B16F10 cells and 5×10^6 LLC cells dissolved in 200 μl sterile PBS. • (2) When the tumor volume reached 150 mm^3, the mice were divided into groups and treated differently. […] The Anti-PD1 used in this experiment was specifically In VivoPlus anti-mouse PD-1 (CD279). • (3) The experimental observation time lasted for 10 days (melanoma) or 20 days (Lewis lung cancer). If the mice were infected or in poor condition, they were treated in time. During the period, the tumor volume was measured every 2 days, and the volume calculation formula was length×width 2×0.5. • (4) At the end of the experiment, the mice were killed, the subcutaneous tumors were removed, photographed, weighed, and counted.

The next assay has as its system LLC (Lewis lung cancer). The assay is described as follows: LLC (Lewis lung cancer) transplant tumor model. Type of assay: in vivo, C57BL/6 mice. To be noted: Selonsertib 15 mg/kg per day i.p.; Anti-PD1 50 μg/kg once every two days; 20 days. Here is the method:
as §6

Each structure is given as a SMILES string.

Consider `CC(C)CCN1c2nc(Nc3cc(F)c(O)c(F)c3)ncc2N(C)C(=O)C1C` (stereo not shown) [BI-D1870], for which, in the assay on TE10 cells [1], the “proliferation of TE10” value is listed as “can inhibit”. For the same compound, in the assay with ECA109 cells [2], the “proliferation of ECA109” value is “can inhibit”. Also, the “migration of TE10” value with TE10 cells [3] is “can inhibit”. Moreover, the “migration of ECA109” value in the assay on ECA109 cells [4] is “can inhibit”.

On to `Cc1cc(F)c(C(=O)Nc2cccc(-c3nncn3C(C)C)n2)cc1-n1cnc(C2CC2)c1` [Selonsertib, 5-(4-cyclopropyl-1H-imidazol-1-yl)-2-fluoro-N-(6-(4-isopropyl-4H-1,2,4-triazol-3-yl)pyridine-2-yl)-4-methylbenzamide], for which, in [5], the “expression of P-GSK3β (ser9)” value was “downregulate” and the “expression of P-RPS6 (S235/S236)” value is “downregulate”. In addition, in assay [5] (different concentrations), the “phosphorylation of RSK4 downstream substrates” value is listed as “could inhibit”. Also, the “proliferation of TE10” value with TE10 cells [1] is “can inhibit”. Also, the “proliferation of ECA109” value with ECA109 cells [2] is on record as “can inhibit”. The “migration of TE10” value in the assay on TE10 cells [3] is on record as “can inhibit”. For the same compound, the “migration of ECA109” value with ECA109 cells [4] is on record as “can inhibit”. Also, the “inhibitory effect on tumor growth compared with the positive control (BI-D1870)” value with ESCC cells was “stronger inhibitory effect on tumor growth at a lower dose”. Moreover, the “proliferation of KYSE450-IR” value with KYSE450-IR is “can inhibit”. Further, the “resistance of esophageal squamous cell carcinoma to icotinib” value in the assay on KYSE450-IR (FIG. 9) is listed as “reverses the resistance”. In addition, in the assay with KYSE450/AR (2 μm, CCK8), the KYSE450/AR proliferation result is listed as “basically consistent with those of KYSE450-IR”. Moreover, in the assay with KYSE450/AR, the “resistance of esophageal squamous cell carcinoma to afatinib” value is recorded as “reverses the resistance”. Further, the “proliferation of melanoma (tumor growth)” value with B16F10 (melanoma) was “can inhibit”. Besides, the “proliferation of Lewis lung cancer (tumor growth)” value in the assay on LLC (Lewis lung cancer) is recorded as “can inhibit”.

Regarding `C#Cc1cccc(Nc2ncnc3cc4c(cc23)OCCOCCOCCO4)c1` [icotinib], the “proliferation of KYSE450-IR” value in the assay with KYSE450-IR is listed as “extremely low”.
